Measurements from patent publication US10195156B2, “Compounds and compositions for intracellular delivery of agents” (ModernaTX, Inc., priority 2015, dated 2019).

Assays:
[1] = system: modified luciferase expression; assay: Expression of Luc in different organs (liver, lung, spleen, femur) 6 hours after intravenous administration; type: in vivo; conditions: i.v., 0.5 mpk
Description: The efficacy of the nanoparticle compositions presented in Tables 1, 1a, 17-1, 19-1, 20-1 and 21-1 was further evaluated by measuring the expression of modified luciferase in the liver, lung, spleen, and femur upon administration of a given composition. Formulations were administered intravenously to mice (n=3) at a dosage of 0.5 mpk and bioluminescence measured after 6 hours. The standard MC3 formulation and a PBS control were also tested.

[2] = Encapsulation efficiency of RNA (QUANT-IT RIBOGREEN RNA assay); type: physicochemical; conditions: rows without footnote mark
Outline: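 RiboGreen fluorescence (ex ~480, em ~520 nm) measured after 15 min at 37 °C on samples at ~5 μg/mL in TE, pH 7.5, ± 2% Triton X-100 solution. After blank subtraction, free RNA is given as intact-sample signal divided by disrupted-sample signal.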

[3] = system: IP-10; assay: Cytokine production induced by sample formulations: IP-10; type: in vivo; conditions: mice, i.v., 0.5 mpk, 6 hours, in pg/mL (unit assumed)
Outline: (§1)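 Cytokine levels were quantified at 6 hours in mice given the nanoparticle compositions i.v. at 0.5 mpk. MC3 standard formulation and PBS served as comparators.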

[4] = Particle size and polydispersity index of nanoparticle compositions (Zetasizer Nano ZS); type: physicochemical
Outline: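 Values are size and PDI readings from a Zetasizer Nano ZS. Measurements are taken in 1×PBS; zeta potential, by contrast, uses 15 mM PBS.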

[5] = system: luciferase (Luc) mRNA expression; assay: Expression of Luc induced by sample formulations, whole-body bioluminescence after intravenous administration; type: in vivo; conditions: mice, i.v., 0.5 mg/kg
Outline: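 Read-out is whole-body bioluminescence at 3, 6 and 24 h after a single intravenous dose of 0.5 mg/kg Luc mRNA in nanoparticle formulations. Groups of n=6 mice; PBS and standard MC3 formulation as references.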

[6] = pKa of nanoparticle compositions; type: physicochemical; conditions: rows without footnote mark
[7] = system: IL-6; assay: Cytokine production induced by sample formulations: IL-6; type: in vivo; conditions: mice, i.v., 0.5 mpk, 6 hours, in pg/mL (unit assumed)
Outline: as §1

[8] = Table 20-1, rows without footnote mark
[9] = Table 1, rows without footnote mark
[10] = Table 1, rows without footnote mark (lipid:DOPE:cholesterol:PEG-DMG 40:20:38.5:1.5, Luc mRNA; MC3 standard formulation)

In the case of `CCCCCCCCCCCCN(CCCCCCCCCCCC)CCN(CCO)CCCCCC` [Compound 20-15, 2-((2-(Didodecylamino)ethyl)(hexyl)amino)ethan-1-ol], the “Total Flux Liver” value ([1]; Table 20-3, mice) is reported as 6.74E+07, the “Total Flux Lung” value ([1]; Table 20-3, mice) is reported as 5.56E+05 and the “Total Flux Spleen” value ([1]; Table 20-3, mice) is reported as 1.86E+06. The “EE (%)” value ([2]; Table 20-1) was 97.4%, the IP-10 ([3]; Table 20-4, formula (20-I)) was 136.3 and the PDI [4, 8] was 0.118. For the same compound, the “Size (nm)” value [4, 8] was 67.4 nm, the “particle size, rank within the named table (in words)” value ([4]; comparison amongst compositions) was “smallest particles” and the “Total Flux 3 hours” value ([5]; Table 20-2) was 3.36E+08. The “Total Flux 6 hours” value ([5]; Table 20-2) was 2.25E+08, the “Total Flux 24 hours” value ([5]; Table 20-2) was 2.08E+07 and the pKa ([6]; Table 20-1) was 6.48. For the same compound, the IL-6 ([7]; Table 20-4, formula (20-I)) was 49.4.
For `CCCCCCCCCCCCN(CCCCCCCCCCCC)CCN(CCO)CCCCCCCCC` [Compound 20-17, 2-((2-(didodecylamino)ethyl)(nonyl)amino)ethan-1-ol], the “Total Flux Liver” value ([1]; Table 20-3, mice) was 2.99E+06, the “Total Flux Lung” value ([1]; Table 20-3, mice) was 2.79E+04 and the “Total Flux Spleen” value ([1]; Table 20-3, mice) was 9.56E+04. The “EE (%)” value ([2]; Table 20-1) was 98.2%, the IP-10 ([3]; Table 20-4, formula (20-I)) was 1207.0 and the PDI [4, 8] was 0.092. For the same compound, the “Size (nm)” value [4, 8] was 71.2 nm, the “Total Flux 3 hours” value ([5]; Table 20-2) was 1.97E+07 and the “Total Flux 6 hours” value ([5]; Table 20-2) was 1.44E+07. For the same compound, the “Total Flux 24 hours” value ([5]; Table 20-2) was 1.54E+06, the pKa ([6]; Table 20-1) was 6.25 and the IL-6 ([7]; Table 20-4, formula (20-I)) was 6.3.
With `CCCCCCCCCCCCN(CCO)CCN(CCCCCCCCC)CCCCCCCCC` [Compound 20-18, 2-((2-(Dinonylamino)ethyl)(dodecyl)amino)ethan-1-ol] the “Total Flux Femur” value ([1]; Table 20-3, mice) was 3.78E+05, the “Total Flux Liver” value ([1]; Table 20-3, mice) was 4.83E+08 and the “Total Flux Lung” value ([1]; Table 20-3, mice) was 1.84E+06. The “Total Flux Spleen” value ([1]; Table 20-3, mice) was 2.36E+06, the “EE (%)” value ([2]; Table 20-1) was 91.1% and the IP-10 ([3]; Table 20-4, formula (20-I)) was 572.7. For the same compound, the PDI [4, 8] was 0.150, the “Size (nm)” value [4, 8] was 70.1 nm and the “Total Flux 3 hours” value ([5]; Table 20-2) was 5.80E+09. For the same compound, the “Total Flux 6 hours” value ([5]; Table 20-2) was 6.48E+09, the “Total Flux 24 hours” value ([5]; Table 20-2) was 1.54E+09 and the pKa ([6]; Table 20-1) was 6.31. The IL-6 ([7]; Table 20-4, formula (20-I)) was 102.
With `CCCCCCCCCCCCN(CCCO)CCN(CCCCCCCCCCCC)CCCCCCCCCCCC` [Compound 20-21, 3-((2-(Didodecylamino)ethyl)(dodecyl)amino)propan-1-ol] the “Total Flux Liver” value ([1]; Table 20-3, mice) was 1.27E+08, the “Total Flux Lung” value ([1]; Table 20-3, mice) was 1.98E+05 and the “Total Flux Spleen” value ([1]; Table 20-3, mice) was 2.20E+06. For the same compound, the “EE (%)” value ([2]; Table 20-1) was 84.7%, the IP-10 ([3]; Table 20-4, formula (20-I)) was 900.4 and the PDI [4, 8] was 0.238. The “Size (nm)” value [4, 8] was 78.6 nm, the “Total Flux 3 hours” value ([5]; Table 20-2) was 1.43E+09 and the “Total Flux 6 hours” value ([5]; Table 20-2) was 1.02E+09. For the same compound, the “Total Flux 24 hours” value ([5]; Table 20-2) was 1.13E+08, the pKa ([6]; Table 20-1) was 5.78 and the IL-6 ([7]; Table 20-4, formula (20-I)) was 68.4.
With `CCCCCCCCCCCCN(CCCCO)CCN(CCCCCCCCCCCC)CCCCCCCCCCCC` [Compound 20-22, 4-((2-(Didodecylamino)ethyl)(dodecyl)amino)butan-1-ol] the “Total Flux Liver” value ([1]; Table 20-3, mice) was 2.88E+08, the “Total Flux Lung” value ([1]; Table 20-3, mice) was 5.04E+05 and the “Total Flux Spleen” value ([1]; Table 20-3, mice) was 1.65E+06. For the same compound, the “EE (%)” value ([2]; Table 20-1) was 95.3%, the IP-10 ([3]; Table 20-4, formula (20-I)) was 810.6 and the PDI [4, 8] was 0.146. The “Size (nm)” value [4, 8] was 73.8 nm, the “Total Flux 3 hours” value ([5]; Table 20-2) was 4.00E+09 and the “Total Flux 6 hours” value ([5]; Table 20-2) was 3.01E+09. The “Total Flux 24 hours” value ([5]; Table 20-2) was 2.20E+08, the pKa ([6]; Table 20-1) was 5.90 and the IL-6 ([7]; Table 20-4, formula (20-I)) was 118.6.
In the case of `CCCCC/C=C\CCCCCN(CCO)CCN(CCCCCCCCCCCC)CCCCCCCCCCCC` [Compound 20-23, (Z)-2-((2-(Didodecylamino)ethyl)(dodec-6-en-1-yl)amino)ethan-1-ol], the “Total Flux Femur” value ([1]; Table 20-3, mice) is reported as 5.10E+05, the “Total Flux Liver” value ([1]; Table 20-3, mice) is reported as 3.06E+08 and the “Total Flux Lung” value ([1]; Table 20-3, mice) is reported as 1.28E+06. For the same compound, the “Total Flux Spleen” value ([1]; Table 20-3, mice) was 4.19E+06, the “EE (%)” value ([2]; Table 20-1) was 95.3% and the IP-10 ([3]; Table 20-4, formula (20-I)) was 457.8. The PDI [4, 8] was 0.080, the “Size (nm)” value [4, 8] was 88.1 nm and the “Total Flux 3 hours” value ([5]; Table 20-2) was 1.91E+09. The “Total Flux 6 hours” value ([5]; Table 20-2) was 1.42E+09, the “Total Flux 24 hours” value ([5]; Table 20-2) was 1.13E+08 and the pKa ([6]; Table 20-1) was 6.56. For the same compound, the IL-6 ([7]; Table 20-4, formula (20-I)) was 236.4.
For `CCCCCCCCCCCCCCN(CCO)CCN(CCCCCCCCCCCC)CCCCCCCCCCCC` [Compound 20-24, 2-((2-(Didodecylamino)ethyl)(tetradecyl)amino)ethan-1-ol], the “Total Flux Liver” value ([1]; Table 20-3, mice) was 4.05E+07, the “Total Flux Lung” value ([1]; Table 20-3, mice) was 1.08E+05 and the “Total Flux Spleen” value ([1]; Table 20-3, mice) was 1.11E+06. The “EE (%)” value ([2]; Table 20-1) was 96.9%, the IP-10 ([3]; Table 20-4, formula (20-I)) was 1678.6 and the PDI [4, 8] was 0.038. For the same compound, the “Size (nm)” value [4, 8] was 90.6 nm, the “Total Flux 3 hours” value ([5]; Table 20-2) was 7.47E+08 and the “Total Flux 6 hours” value ([5]; Table 20-2) was 1.64E+08. For the same compound, the “Total Flux 24 hours” value ([5]; Table 20-2) was 9.72E+06, the pKa ([6]; Table 20-1) was 6.06 and the IL-6 ([7]; Table 20-4, formula (20-I)) was 67.1.
In the case of `CCCCC/C=C\C/C=C\CCCCCCCCN(CCO)CCN(CCCCCCCCCCCC)CCCCCCCCCCCC` [Compound 20-25, 2-((2-(Didodecylamino)ethyl)((9Z,12Z)-octadeca-9,12-dien-1-yl)amino)ethan-1-ol], the “Total Flux Femur” value ([1]; Table 20-3, mice) is reported as 3.13E+05, the “Total Flux Liver” value ([1]; Table 20-3, mice) is reported as 1.88E+08 and the “Total Flux Lung” value ([1]; Table 20-3, mice) is reported as 7.85E+05. For the same compound, the “Total Flux Spleen” value ([1]; Table 20-3, mice) was 4.16E+06, the “EE (%)” value ([2]; Table 20-1) was 98.4% and the IP-10 ([3]; Table 20-4, formula (20-I)) was 188.0. For the same compound, the PDI [4, 8] was 0.171, the “Size (nm)” value [4, 8] was 71.7 nm and the “Total Flux 3 hours” value ([5]; Table 20-2) was 1.16E+09. For the same compound, the “Total Flux 6 hours” value ([5]; Table 20-2) was 1.78E+09, the “Total Flux 24 hours” value ([5]; Table 20-2) was 3.82E+07 and the pKa ([6]; Table 20-1) was 6.23. For the same compound, the IL-6 ([7]; Table 20-4, formula (20-I)) was 20.6.
With `CCCCCCCCCCCCN(CCCCCCCCCCCC)CCN(CCCCCCCCCCCC)CCN1CCN(CCN(CCCCCC)CCCCCC)CC1` [Compound 21, N^1-(2-(4-(2-(Dihexylamino)ethyl)piperazin-1-yl)ethyl)-N^1,N^2,N^2-tridodecylethane-1,2-diamine] the “Total Flux Liver” value ([1]; Table 3, mice) was 1.24E+09, the “Total Flux Lung” value ([1]; Table 3, mice) was 2.51E+06 and the “Total Flux Spleen” value ([1]; Table 3, mice) was 1.17E+07. For the same compound, the “EE (%)” value ([2]; Table 1) was 98.6%, the IP-10 ([3]; Table 4) was 652 and the PDI [4, 9] was 0.239. For the same compound, the “Size (nm)” value [4, 10] was 98.3 nm, the “Total Flux 3 hours” value ([5]; Table 2) was 1.13E+10 and the “Total Flux 6 hours” value ([5]; Table 2) was 1.08E+10. For the same compound, the “Total Flux 24 hours” value ([5]; Table 2) was 1.18E+08, the pKa ([6]; Table 1) was 6.29 and the IL-6 ([7]; Table 4) was 48.
With `CCCCC/C=C\CCCCCN(CCCCC/C=C\CCCCC)CCN1CCN(CCN(CCCCCCCCCCCC)CCN(CCCCCCCCCCCC)CCCCCCCCCCCC)CC1` [Compound 25, N^1-(2-(4-(2-(Di((Z)-dodec-6-en-1-yl)amino)ethyl)piperazin-1-yl)ethyl)-N^1,N^2,N^2-tridodecylethane-1,2-diamine] the “Total Flux Liver” value ([1]; Table 3, mice) was 2.68E+09, the “Total Flux Lung” value ([1]; Table 3, mice) was 5.88E+06 and the “Total Flux Spleen” value ([1]; Table 3, mice) was 6.00E+06. The “EE (%)” value ([2]; Table 1) was 97.0%, the IP-10 ([3]; Table 4) was 1823 and the PDI [4, 9] was 0.186. For the same compound, the “Size (nm)” value [4, 10] was 90.0 nm, the “Total Flux 3 hours” value ([5]; Table 2) was 1.06E+10 and the “Total Flux 6 hours” value ([5]; Table 2) was 1.08E+10. The “Total Flux 24 hours” value ([5]; Table 2) was 2.72E+08, the pKa ([6]; Table 1) was 6.20 and the IL-6 ([7]; Table 4) was 131.
